Source: ChEMBL document CHEMBL1156142, “COX, LOX and platelet aggregation inhibitory properties of Lauraceae neolignans” (Bioorg Med Chem Lett, 2009)

How the values were obtained:
Ovis aries = species: Ovis aries; assay: Selectivity ratio of IC50 for ovine COX-1 to IC50 for ovine COX-2
[1] = target: T1, Prostaglandin G/H synthase 1 (Ovis aries, UniProt P05979)
T1 sequence (P05979 whole entry): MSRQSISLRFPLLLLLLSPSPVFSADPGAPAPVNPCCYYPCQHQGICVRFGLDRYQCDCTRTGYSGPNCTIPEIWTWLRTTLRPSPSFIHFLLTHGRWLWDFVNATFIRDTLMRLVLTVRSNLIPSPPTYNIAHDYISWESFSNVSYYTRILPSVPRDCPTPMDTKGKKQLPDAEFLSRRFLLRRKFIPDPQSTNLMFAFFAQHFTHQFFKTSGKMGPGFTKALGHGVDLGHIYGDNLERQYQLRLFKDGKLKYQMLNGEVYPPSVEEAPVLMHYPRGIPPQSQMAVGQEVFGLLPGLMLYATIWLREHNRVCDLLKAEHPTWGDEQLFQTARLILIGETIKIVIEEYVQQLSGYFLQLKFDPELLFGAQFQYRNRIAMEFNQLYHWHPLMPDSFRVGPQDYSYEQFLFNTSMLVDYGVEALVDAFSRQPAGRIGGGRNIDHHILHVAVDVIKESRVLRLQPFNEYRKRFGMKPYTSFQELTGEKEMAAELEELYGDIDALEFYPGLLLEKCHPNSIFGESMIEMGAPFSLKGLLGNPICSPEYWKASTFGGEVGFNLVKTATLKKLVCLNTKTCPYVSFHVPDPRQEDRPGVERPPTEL
Description: Inhibition of ovine COX-1 assessed as inhibition of transformation of AA to PGH2 by EIA

[2] = Antiplatelet activity in rabbit platelets assessed as inhibition of adenosin 5'-diphosphate-induced platelet aggregation; type: functional, cell-based; details: Oryctolagus cuniculus
[3] = Inhibition of potato LOX-5 assessed as inhibition of hydroperoxide production after 5 mins by EIA; design: species or system Solanum tuberosum
[4] = Antiplatelet activity in rabbit platelets assessed as inhibition of platelet activating factor-induced platelet aggregation; type: functional, cell-based, Oryctolagus cuniculus
[5] = Antiplatelet activity in rabbit platelets assessed as inhibition of arachidonic acid-induced platelet aggregation; type: functional, cell-based, Oryctolagus cuniculus
[6] = Oryctolagus cuniculus, Platelet

Ratio IC50 (Ovis aries)	IC50 [1]	IC50 [2]	IC50 [3]	IC50 [4, 6]	IC50 [5, 6]	IC50 ([4]; platelet)	IC50 ([5]; platelet)	SMILES
–	72.2 µM	> 999 µM	156 µM	1.37 µM	68.7 µM	–	–	C=CCC1=C[C@]2(OC)[C@@H](O)[C@@](OC)(C1=O)[C@@H](c1cc(OC)c(OC)c(OC)c1)[C@@H]2C (stereo in doubt; 8) [NECTAMAZIN B]
–	152 µM	–	42.4 µM	–	–	1.72 µM	43.4 µM	C=CCC1=C[C@]2(OC)[C@@H](O)[C@@](OC)(C1=O)[C@@H](c1cc(OC)c(OC)c(OC)c1)[C@@H]2C (stereo in doubt; 9) [NECTAMAZIN B]
15.6	88.6 µM	148 µM	0.199 µM	75.6 µM	58.3 µM	–	–	C=CCC1=C[C@]2(OC)C(=CC1=O)O[C@@H](c1ccc(OC)c(OC)c1)[C@H]2C [(+)-DENUDATIN B]
426	366 µM	54.6 µM	14.3 µM	488 µM	290 µM	–	–	C/C=C/c1cc(OC)c2c(c1)[C@H](C)[C@@H](c1ccc3c(c1)OCO3)O2 [(-)-LICARIN B]
–	28.3 µM	> 999 µM	136 µM	1.09 µM	85.8 µM	–	–	C=CCC1=C[C@]2(OC)[C@H](C)[C@@H](c3cc(OC)c4c(c3)OCO4)[C@](OC)(C1=O)[C@H]2O [CINERIN C]
–	188 µM	–	8.84 µM	6.63 µM	25.6 µM	–	–	C=CCC1=C[C@@]2(OC)C(=O)[C@](OC)([C@H](c3cc(OC)c4c(c3)OCO4)[C@H]2C)[C@H]1O [CINERIN D]
–	–	> 999 µM	–	0.925 µM	75.6 µM	–	–	C[C@@H]1C(=O)O[C@H]2[C@H](O)[C@@]34[C@H]5C[C@@H](C(C)(C)C)[C@]36[C@@H](OC(=O)[C@@H]6O)O[C@@]4(C(=O)O5)[C@@]12O [GINKOLIDE B]
12.6	25.6 µM	38.1 µM	0.104 µM	0.153 µM	5.61 µM	–	–	C=CCC1=C[C@@]2(OC)C(=CC1=O)O[C@H](c1ccc(OC)c(OC)c1)[C@H]2C [KADSURENONE]
10.2	179 µM	124 µM	1.81 µM	18.4 µM	145 µM	–	–	C=CCc1cc2c(cc1O)O[C@H](c1ccc3c(c1)OCO3)[C@H]2C [LILIFLOL A]
–	77.9 µM	–	0.62 µM	3.28 µM	38.7 µM	–	–	C=CCC1=C[C@@]2(OC)C(=CC1=O)O[C@H](c1cc(OC)c(OC)c(OC)c1)[C@H]2C [MIRANDIN A]
329	349 µM	> 999 µM	106 µM	460 µM	426 µM	–	–	C=CCc1cc(OC)c2oc(-c3ccc4c(c3)OCO4)cc2c1 [NEOLIGNAN 9-NOR-7,8-DEHYDRO-ISOLICARIN B]
436	123 µM	102 µM	7.31 µM	> 999 µM	568 µM	–	–	COc1cc(C=O)cc2c(C)c(-c3ccc4c(c3)OCO4)oc12 [OCOPHYLLALS A]
412	102 µM	98.3 µM	8.02 µM	847 µM	425 µM	–	–	COc1cc(-c2oc3c(OC)cc(C=O)cc3c2C)cc(OC)c1OC [OCOPHYLLALS B]
–	88.6 µM	636 µM	256 µM	3.08 µM	45.6 µM	–	–	C=CCC1=C[C@@]2(OC)[C@H](C)[C@@H](c3ccc4c(c3)OCO4)[C@H](C1=O)[C@H]2O [OCOPHYLOL A]
–	72.1 µM	> 999 µM	176 µM	2.34 µM	48.6 µM	–	–	C=CCC1=C[C@@]2(OC)[C@H](C)[C@@H](c3cc(OC)c(OC)c(OC)c3)[C@H](C1=O)[C@H]2O [OCOPHYLOL C]

Continued, compound first:

SMILES	Ratio IC50 (Ovis aries)	IC50 [1]	IC50 [2]	IC50 [3]	IC50 [4, 6]	IC50 [5, 6]	IC50 ([4]; platelet)	IC50 ([5]; platelet)
O=C(O)/C=C/c1ccc(O)c(O)c1	3.74	–	–	–	–	–	–	–
C=CCC1=C[C@]2(OC)C(=O)C(C1=O)[C@H](c1cc(OC)c(OC)c(OC)c1)[C@H]2C [4'-OXO-MACROPHYLLIN B]	–	356 µM	521 µM	92.5 µM	7.47 µM	78.9 µM	–	–
C/C=C/c1cc(OC)c2c(c1)[C@@H](C)[C@H](c1ccc(OC)c(OC)c1)O2 [ACUMINATIN]	146	223 µM	75.6 µM	7.75 µM	65.3 µM	222 µM	–	–
CC(=O)Oc1ccccc1C(=O)O [ASPIRIN]	–	–	545 µM	0.162 µM	10.3 µM	5.33 µM	–	–
Cc1ccc(-c2cc(C(F)(F)F)nn2-c2ccc(S(N)(=O)=O)cc2)cc1 [CELECOXIB]	–	–	–	73.4 µM	–	–	–	–
C=CCC1=C[C@]2(OC)C(=O)[C@@](OC)(C1=O)[C@H](c1cc(OC)c3c(c1)OCO3)[C@H]2C [CINERIN A]	–	165 µM	88.9 µM	45.6 µM	–	75.6 µM	–	–
C=CCC1=C[C@@]2(OC)[C@H](C)[C@@H](c3cc(OC)c4c(c3)OCO4)[C@H](C1=O)[C@@H]2O [CINERIN B]	–	32.5 µM	> 999 µM	146 µM	1.51 µM	42.8 µM	–	–
C=CCC1=C[C@@]2(OC)[C@H](C)[C@@H](c3ccc(OC)c(OC)c3)[C@H](C1=O)[C@@H]2O [KADSURENIN C]	–	38.7 µM	> 999 µM	117 µM	2.33 µM	54.6 µM	–	–
C/C=C/c1cc(OC)c2c(c1)[C@H](C)[C@@H](c1ccc(O)c(OC)c1)O2 [LICARIN A]	35.5	312 µM	112 µM	9.73 µM	> 999 µM	489 µM	–	–
C/C=C/c1cc(OC)c2c(c1)[C@@H](C)[C@H](c1ccc(O)c(OC)c1)O2 [LICARINE A]	12.5	245 µM	165 µM	3.69 µM	> 999 µM	556 µM	–	–
C/C=C/c1cc(OC)c2c(c1)[C@@H](C)[C@H](c1ccc3c(c1)OCO3)O2 [LICARINE B]	157	289 µM	56.7 µM	5.55 µM	565 µM	326 µM	–	–
C=CCC1=C[C@]2(OC)C(=O)C([C@@H]1O)[C@H](c1cc(OC)c(OC)c(OC)c1)[C@H]2C [MACROPHYLLIN B]	–	216 µM	121 µM	18.9 µM	6.79 µM	23.2 µM	–	–
C=CCC1=C[C@@]2(OC)[C@@H](C)[C@H](c3cc(OC)c(OC)c(OC)c3)[C@](OC)([C@H]1O)[C@H]2O [NECTAMAZIN C]	–	74.6 µM	> 999 µM	12.8 µM	3.78 µM	21.6 µM	–	–
C=CCC1=C[C@@]2(OC)[C@H](C)[C@@H](c3ccc(OC)c(OC)c3)[C@H](C1=O)[C@H]2O [OCOPHYLOL B]	–	94.9 µM	725 µM	189 µM	3.03 µM	38.8 µM	–	–
